In patent US20240083910A1, “AMIDO-SUBSTITUTED PYRIDYL COMPOUNDS AND METHODS OF USE THEREOF FOR THE TREATMENT OF HERPESVIRUSES” (Merck Sharp & Dohme LLC, priority 2020, published 2024):
Read-outs that look alike come from different tables or passages of the source.

Assays:
[1] = biological target: T1, Human cytomegalovirus DNA polymerase (Human cytomegalovirus, UniProt P08546); test: CMV polymerase assay (AlphaLISA); format: biochemical; details: HCMV polymerase 0.2 nM; 30 min pre-incubation; 60 min at 37° C.; read-out: CMV (IC50)
T1 construct: made in house; host or cells: SF21 insect cells (baculovirus vector)
T1 sequence (P08546 whole entry): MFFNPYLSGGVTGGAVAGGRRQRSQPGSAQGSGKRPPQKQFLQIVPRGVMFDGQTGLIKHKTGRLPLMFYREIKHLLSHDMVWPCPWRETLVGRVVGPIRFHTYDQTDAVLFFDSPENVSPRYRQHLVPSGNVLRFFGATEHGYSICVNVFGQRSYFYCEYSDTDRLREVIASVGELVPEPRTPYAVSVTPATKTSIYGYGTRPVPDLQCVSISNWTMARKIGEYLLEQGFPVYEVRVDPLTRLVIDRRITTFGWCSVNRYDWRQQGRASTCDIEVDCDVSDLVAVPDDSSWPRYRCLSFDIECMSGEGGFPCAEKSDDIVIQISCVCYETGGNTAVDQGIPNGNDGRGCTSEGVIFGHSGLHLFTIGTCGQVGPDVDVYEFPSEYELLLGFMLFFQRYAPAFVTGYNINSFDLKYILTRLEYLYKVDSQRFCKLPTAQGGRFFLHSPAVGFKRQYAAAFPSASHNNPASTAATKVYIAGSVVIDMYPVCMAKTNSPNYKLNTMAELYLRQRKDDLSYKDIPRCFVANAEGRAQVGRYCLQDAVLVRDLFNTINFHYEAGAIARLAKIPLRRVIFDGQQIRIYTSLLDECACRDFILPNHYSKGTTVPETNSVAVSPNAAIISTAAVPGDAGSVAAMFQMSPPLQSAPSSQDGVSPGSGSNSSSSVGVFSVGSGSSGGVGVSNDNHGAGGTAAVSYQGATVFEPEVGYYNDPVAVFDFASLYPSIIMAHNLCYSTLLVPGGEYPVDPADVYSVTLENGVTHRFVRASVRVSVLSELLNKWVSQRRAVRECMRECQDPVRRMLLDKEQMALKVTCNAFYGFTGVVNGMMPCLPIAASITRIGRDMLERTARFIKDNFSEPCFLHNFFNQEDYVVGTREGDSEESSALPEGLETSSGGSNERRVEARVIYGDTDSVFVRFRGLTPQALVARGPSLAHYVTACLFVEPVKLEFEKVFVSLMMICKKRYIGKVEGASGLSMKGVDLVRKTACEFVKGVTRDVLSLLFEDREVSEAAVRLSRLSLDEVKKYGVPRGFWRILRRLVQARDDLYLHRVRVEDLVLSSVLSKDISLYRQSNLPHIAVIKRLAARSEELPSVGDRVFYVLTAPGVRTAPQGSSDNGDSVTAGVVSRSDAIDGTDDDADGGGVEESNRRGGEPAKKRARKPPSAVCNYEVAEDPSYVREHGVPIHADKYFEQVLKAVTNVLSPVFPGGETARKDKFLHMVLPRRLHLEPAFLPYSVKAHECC
Description: (§1) Human cytomegalovirus and varicella zoster virus DNA polymerases were expressed via baculovirus vector in SF21 cells and purified. Heterodimeric nucleic acid substrate used in the herpesvirus polymerase reactions was generated by annealing a 59-mer template to a 17-mer digoxigenin-labeled primer. Polymerase (HCMV final concentration of 0.2 nM; VZV final concentration of 0.4 nM) was combined with an inhibitor compound or DMSO in assay buffer (10 mM HEPES, pH 7.5, 25 mM KCl, 25 mM NaCl, 5 mM MgCl2, 5% glycerol, 0.67 mg/ml bovine serum albumin, and 1 mM tris(2-carboxyethyl)phosphine), and this mixture was pre-incubated for 30 minutes at room temperature in 384-well microtiter plates. The polymerization reaction was initiated by the addition of template/primer substrate (final concentration: 1.6 nM), and dNTPs (final concentration: 24 nM dCTP, 24 nMdGTP, 16 nM dATP, 16 nM dTTP, and 0.8 nM biotin-dUTP). After 60 min incubation at 37° C., reactions were terminated with quench buffer (25 mM HEPES pH 7.5, 100 mM NaCl, 0.25% Tween-20, 12 mM EDTA, and 1 mg/ml bovine serum albumin). Incorporation of biotinylated UTP was detected with 2.5-5 ug/ml anti-DIG AlphaLISA acceptor beads and 5-10 ug/ml streptavidin AlphaLISA donor beads (PerkinElmer). Compound effects were normalized to the window defined by the controls (DMSO only and pre-quenched wells) and were fit using a 4-parameter algorithm to report an IC50.

[2] = biological target: T2, varicella zoster virus DNA polymerase (Varicella-zoster virus, UniProt P09252); test: VZV polymerase assay (AlphaLISA); format: biochemical; details: VZV polymerase 0.4 nM; 30 min pre-incubation; 60 min at 37° C.
T2 construct: made in house; host or cells: SF21 insect cells (baculovirus vector)
T2 sequence (P09252 whole entry): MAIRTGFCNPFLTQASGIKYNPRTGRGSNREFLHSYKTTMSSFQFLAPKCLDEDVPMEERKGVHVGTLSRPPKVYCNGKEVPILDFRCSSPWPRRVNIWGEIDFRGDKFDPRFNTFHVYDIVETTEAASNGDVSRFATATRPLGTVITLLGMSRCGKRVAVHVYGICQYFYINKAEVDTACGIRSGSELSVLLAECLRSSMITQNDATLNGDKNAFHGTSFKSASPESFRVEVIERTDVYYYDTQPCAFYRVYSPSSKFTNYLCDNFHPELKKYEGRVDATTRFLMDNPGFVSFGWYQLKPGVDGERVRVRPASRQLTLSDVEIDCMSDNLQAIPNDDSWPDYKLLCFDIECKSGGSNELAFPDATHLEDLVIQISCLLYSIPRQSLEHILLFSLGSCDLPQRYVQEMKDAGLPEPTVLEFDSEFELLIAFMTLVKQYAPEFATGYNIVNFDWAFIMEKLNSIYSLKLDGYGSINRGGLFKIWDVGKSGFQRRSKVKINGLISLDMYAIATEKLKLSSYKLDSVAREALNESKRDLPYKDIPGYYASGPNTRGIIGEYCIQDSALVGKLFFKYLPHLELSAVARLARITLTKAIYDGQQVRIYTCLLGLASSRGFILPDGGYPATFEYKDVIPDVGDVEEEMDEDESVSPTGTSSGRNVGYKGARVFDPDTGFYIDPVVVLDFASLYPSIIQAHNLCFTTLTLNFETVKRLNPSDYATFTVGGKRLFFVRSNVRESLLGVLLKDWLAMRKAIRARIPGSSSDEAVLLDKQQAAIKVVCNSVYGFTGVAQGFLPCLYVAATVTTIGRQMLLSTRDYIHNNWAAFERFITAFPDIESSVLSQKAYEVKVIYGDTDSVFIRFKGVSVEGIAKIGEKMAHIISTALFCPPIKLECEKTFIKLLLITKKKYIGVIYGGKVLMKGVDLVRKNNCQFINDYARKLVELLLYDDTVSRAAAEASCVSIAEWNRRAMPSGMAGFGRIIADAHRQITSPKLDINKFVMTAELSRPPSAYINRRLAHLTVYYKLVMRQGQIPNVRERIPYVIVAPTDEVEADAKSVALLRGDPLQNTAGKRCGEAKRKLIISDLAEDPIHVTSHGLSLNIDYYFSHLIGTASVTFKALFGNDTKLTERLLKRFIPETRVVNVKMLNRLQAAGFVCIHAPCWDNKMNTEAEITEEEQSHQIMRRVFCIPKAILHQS
Description: as §1

[3] = system: HCMV Strain AD169; test: Viral qPCR assay, HCMV; format: cell-based, Human cytomegalovirus; details: MRC-5 cells, 0.05-0.1 pfu/cell, growth media or 50% fetal bovine serum, viral genome copies by qPCR, read-out: CMV Cell (EC50)
Description: (§2) MRC5 cells, Vero cells, and MeWo cells were obtained from ATCC, and were maintained at 37° C./5% CO2/90% relative humidity in Minimal Essential Medium with 10% fetal bovine serum, […] L-glutamine, 100 units/ml penicillin and 100 ug/ml streptomycin. Assay plates were prepared by dispensing compounds dissolved in DMSO into wells of 384 well collagen-coated plates using an ECHO acoustic dispenser. Each compound was tested in a 10-point, serial 3-fold dilution. Controls included uninfected cells and infected cells treated only with DMSO. Assays were initiated by mixing selected cells, in suspension, with virus, and dispensing 50 μl/well infected cells to pre-plated compounds. Plates were incubated at 37° C./5% CO2/90% relative humidity for ˜72 hrs to permit genomic replication, and infected cells were lysed by the addition of an equal volume of lysis buffer (10 mM Tris-HCl, pH8, 50 mM KCl, 2 mM MgCl2, 0.45% NP-40, 0.45% Tween-20, and 100 μg/ml proteinase K). An aliquot of the lysate was transferred to a 384-well PCR plate and incubated at 56° C. for 1 hour and then at 95° C. for 10 min. Levels of a viral gene and of the cellular control, PPIA (Thermo Fisher Assay ID=Hs04194521_s1), were measured in separate 10 ul qPCR assays using TaqMan® Gene Expression Master Mix (Applied Biosystems), and an 7900HT Fast Real-Time PCR System with 384-Well Block Module. 7-point, serial 10-fold dilutions of a plasmid standard were run on each plate to generate a standard curve, and genome copies numbers were calculated by plotting experimental Ct onto linear regression of the standard curve. Viral genome copy numbers were normalized by cellular control copy number, and compound effects were normalized to the window defined by the controls. Calculated % effects were fit using a 4-parameter algorithm, and EC50 was reported.
(§3) MRC5 cells, Vero cells, and MeWo cells were obtained from ATCC, and were maintained at 37° C./5% CO2/90% relative humidity in Minimal Essential Medium with 10% fetal bovine serum, […] L-glutamine, 100 units/ml penicillin and 100 ug/ml streptomycin. Assay plates were prepared by dispensing compounds dissolved in DMSO into wells of 384 well collagen-coated plates using an ECHO acoustic dispenser. Each compound was tested in a 10-point, serial 3-fold dilution. Controls included uninfected cells and infected cells treated only with DMSO. Assays were initiated by mixing selected cells, in suspension, with virus, and dispensing 50 μl/well infected cells to pre-plated compounds. Plates were incubated at 37° C./5% CO2/90% relative humidity for ˜72 hrs to permit genomic replication, and infected cells were lysed by the addition of an equal volume of lysis buffer (10 mM Tris-HCl, pH 8, 50 mM KCl, 2 mM MgC12, 0.45% NP-40, 0.45% Tween-20, and 100 μg/ml proteinase K). An aliquot of the lysate was transferred to a 384-well PCR plate and incubated at 56° C. for 1 hour and then at 95° C. for 10 min. Levels of a viral gene were measured in 10 ul qPCR assays using TaqMan® Gene Expression Master Mix (Applied Biosystems), and an 7900HT Fast Real-Time PCR System with 384-Well Block Module. 7-point, serial 10-fold dilutions of a plasmid standard were run on each plate to generate a standard curve, and genome copies numbers were calculated by plotting experimental Ct onto linear regression of the standard curve. Compound effects on viral genome copy number were normalized to the window defined by the controls. Calculated % effects were fit using a 4-parameter algorithm, and ECso was reported.
HCMV: Strain AD169 Street was assayed in MRC-5 cells and was used at 0.05-0.1 pfu/cell. The assays were performed in either growth media or in the same media with 50% fetal bovine serum. Primer-probe set was Thermo Fisher Assay ID=AIFATFK.

[4] = system: VZV; test: Viral qPCR assay, VZV; format: cell-based, varicella zoster virus; details: MeWo or MRC5 cells, 0.04-0.1 pfu/cell, growth medium, viral genome copies by qPCR
Description: as §2, §3
VZV: Strain Street was maintained as an infected cell stock in MRC-5 cells. It was assayed in MeWo or MRC5 cells and was used at 0.04-0.1 pfu/cell. The assays were performed in growth medium. Primer-probe set was Thermo Fisher Assay ID=AIPAEXQ.

[5] = system: HSV-1 Strain F; test: Viral qPCR assay, HSV-1; format: cell-based, Herpes Simplex Virus type 1; details: Vero or MRC5 cells, 0.0005-0.004 pfu/cell, growth medium, viral genome copies by qPCR, read-out: HSV1 Cell (EC50)
Description: as §2, §3
HSV-1: Strain F […] was assayed in Vero or MRC5 cells and was used at 0.0005-0.004 pfu/cell in growth medium. Primer-probe set was Thermo Fisher Assay ID=AIBJZIB

[6] = Human betaherpesvirus 5, AD169, MRC5, 72 h

| IC50 [1] [nM] | IC50 [2] [nM] | Structure (SMILES) | EC50 [3, 6] [nM] | EC50 ([4]; Human alphaherpesvirus 3, 72 h) [nM] | EC50 ([5]; Human alphaherpesvirus 1, 72 h) [nM] | EC50 ([3]; ~72 hrs) [nM] | EC50 ([4]; ~72 hrs) [nM] | EC50 ([5]; ~72 hrs) [nM] |
| --- | --- | --- | --- | --- | --- | --- | --- | --- |
| 14.5 | – | COc1nc(-c2ccn(C)c2)c(O[C@H]2CCN3C(=O)OC[C@@H]3C2)cc1C(=O)NCc1ccc(Cl)cc1 [Compound 30] | 462 | 187 | 202 | – | – | – |
| 19.2 | – | COc1nc(-c2ccc(C)s2)c(O[C@H]2CCN3C(=O)OC[C@@H]3C2)cc1C(=O)NCc1ccc(Cl)cc1 [Compound 14] | 1020 | 2570 | 824 | – | – | – |
| 9.27 | – | COc1nc(-c2cccs2)c(O[C@H]2CCN3C(=O)OC[C@@H]3C2)cc1C(=O)NCc1ccc(Cl)cc1 [Compound 12] | 313 | 235 | 187 | – | – | – |
| 10.7 | – | COc1nc(-c2ccoc2)c(O[C@H]2CCN3C(=O)OC[C@@H]3C2)cc1C(=O)NCc1ccc(Cl)cc1 [Compound 17] | 317 | 244 | 186 | – | – | – |
| 22.3 | – | COc1ccc(-c2nc(OC)c(C(=O)NCc3ccc(Cl)cc3)cc2O[C@H]2CCN3C(=O)OC[C@@H]3C2)cn1 [Compound 43] | 422 | 298 | 169 | – | – | – |
| 2.07 | 0.63 | COc1nc(-c2cncs2)c(O[C@H]2CCN3C(=O)OC[C@@H]3C2)cc1C(=O)NCc1ccc(Cl)cc1 [Compound 16] | 137 | – | – | – | – | – |
| 20 | – | COc1nc(-c2cncc(CO)c2)c(O[C@H]2CCN3C(=O)OC[C@@H]3C2)cc1C(=O)NCc1ccc(Cl)cc1 [Compound 44] | 326 | 585 | 263 | – | – | – |
| 4.87 | – | COc1nc(-c2ccc(=O)[nH]c2)c(O[C@H]2CCN3C(=O)OC[C@@H]3C2)cc1C(=O)NCc1ccc(Cl)cc1 [Compound 47] | 1300 | 2320 | 654 | – | – | – |
| 16.2 | – | COc1nc(-c2ccc(C)o2)c(O[C@H]2CCN3C(=O)OC[C@@H]3C2)cc1C(=O)NCc1ccc(Cl)cc1 [Compound 13] | 457 | 307 | 229 | – | – | – |
| 11 | – | COc1ccc(-c2nc(OC)c(C(=O)NCc3ccc(Cl)cc3)cc2O[C@H]2CCN3C(=O)OC[C@@H]3C2)s1 [Compound 33] | 901 | 679 | 144 | – | – | – |

More lines, now with the values behind:

| Structure (SMILES) | IC50 [1] [nM] | IC50 [2] [nM] | EC50 [3, 6] [nM] | EC50 ([4]; Human alphaherpesvirus 3, 72 h) [nM] | EC50 ([5]; Human alphaherpesvirus 1, 72 h) [nM] | EC50 ([3]; ~72 hrs) [nM] | EC50 ([4]; ~72 hrs) [nM] | EC50 ([5]; ~72 hrs) [nM] |
| --- | --- | --- | --- | --- | --- | --- | --- | --- |
| COc1nc(N2CC(F)(F)C2)c(O[C@H]2CCN3C(=O)OC[C@@H]3C2)cc1C(=O)NCc1ccc(Cl)cc1 [Compound 65] | 16.4 | 5.28 | 376 | 758 | 877 | – | – | – |
| COc1ncc(O[C@H]2CCN3C(=O)OC[C@@H]3C2)cc1C(=O)NCc1ccc(Cl)cc1 [Compound 103] | 249 | 110 | 4690 | 5500 | – | – | – | – |
| NC(=O)CCOc1nc(-c2cnn(C(F)F)c2)c(O[C@H]2CCN3C(=O)OC[C@@H]3C2)cc1C(=O)NCc1ccc(Cl)cc1 [Compound 100] | 3.17 | – | 47.4 | 451 | 213 | – | – | – |
| COCCn1cc(-c2nc(OC)c(C(=O)NCc3ccc(Cl)cc3)cc2O[C@H]2CCN3C(=O)OC[C@@H]3C2)cn1 [Compound 25] | 6.77 | – | 159 | 186 | 146 | – | – | – |
| O=C(NCc1ccc(Cl)cc1)c1cc(O[C@H]2CCN3C(=O)OC[C@@H]3C2)c(-c2cnn(C(F)F)c2)nc1OCC1CC1(F)F (stereo partly shown) [Compound 91] | 18.5 | – | 271 | 569 | 346 | – | – | – |
| COc1nc(-c2cc3ccccc3[nH]2)c(O[C@H]2CCN3C(=O)OC[C@@H]3C2)cc1C(=O)NCc1ccc(Cl)cc1 [Compound 26] | 5.8 | – | 372 | 208 | 174 | – | – | – |
| COc1nc(CC(C)(C)N)c(O[C@H]2CCN3C(=O)OC[C@@H]3C2)cc1C(=O)NCc1ccc(Cl)cc1 [Compound 81] | 88.6 | – | 558 | 3650 | 2880 | – | – | – |
| CC1(COc2nc(-c3cnn(C(F)F)c3)c(O[C@H]3CCN4C(=O)OC[C@@H]4C3)cc2C(=O)NCc2ccc(Cl)cc2)COC1 [Compound 90] | 9.83 | – | 131 | 286 | 180 | – | – | – |
| COc1nc(N2CCC(C(C)(C)O)C2)c(O[C@H]2CCN3C(=O)OC[C@@H]3C2)cc1C(=O)NCc1ccc(Cl)cc1 (stereo partly shown) [Compound 68] | 28.7 | – | – | – | – | 265 | 661 | 654 |
| COc1nc(-c2cnn(C(F)F)c2)c(O[C@@H]2CCN(C(C)=O)[C@H](C)C2)cc1C(=O)NCc1ccc(Cl)cc1 [Compound 102] | 14.5 | – | 344 | 887 | 601 | – | – | – |
| CN1C(=O)NC[C@@H]1COc1nc(-c2cnn(C(F)F)c2)c(O[C@H]2CCN3C(=O)OC[C@@H]3C2)cc1C(=O)NCc1ccc(Cl)cc1 [Compound 94] | 5.15 | – | 520 | 2180 | 773 | – | – | – |
| CCN(CC)CCOc1nc(-c2cnn(C(F)F)c2)c(O[C@H]2CCN3C(=O)OC[C@@H]3C2)cc1C(=O)NCc1ccc(Cl)cc1 [Compound 96] | 2.72 | – | 75.9 | 400 | 148 | – | – | – |
